Source: patent publication EP2987533B1, “7-substituted piperazin-1-yl fluoroquinolone compounds, their use in the treatment of cancer, pharmaceutical compositions and a method for preparation” (priority 2014, dated 2016)
Where two headings read alike, the source gives them in different places.

What was measured:
COLO 205 = assay: NCI one-dose SRB growth assay; assay type: cell-based; conditions: Homo sapiens; COLO 205 (Colon Cancer), 10^-5 M, 48 h; read-out: % Growth Inhibition (GI %)
Experimental: (§1) A primary anticancer assay was performed for an approximately 60 human tumor cell line panel derived from nine neoplastic diseases, in accordance with the protocol of the Drug Evaluation Branch, National Cancer Institute, Bethesda, MD (Monks A. et al., J. Natl. Cancer Inst 1991, 83, 757-766; Boyd M.R. and Paull K.D., Drug. Dev. Res. 1995, 34, 91-109; Shoemaker R.H., Nat. Rev. Cancer 2006, 6, 813-823). Briefly, tested compounds were added to the culture at a single concentration (10^-5M), and the cultures were incubated for 48 h. End point determinations were made with a protein binding dye, sulforhodamine B (SRB). The results for each tested compound were reported as the growth percentage of the treated cells when compared to that of the untreated control cells. The percentage growth was evaluated spectrophotometrically versus controls not treated with test agents.

HCC-2998 = assay: NCI one-dose SRB growth assay; assay type: cell-based; conditions: Homo sapiens; HCC-2998 (Colon Cancer), 10^-5 M, 48 h; read-out: % Growth Inhibition (GI %)
Experimental: as §1

HOP-62 = assay: NCI one-dose SRB growth assay; assay type: cell-based; conditions: Homo sapiens; HOP-62 (Non-Small Cell Lung Cancer), 10^-5 M, 48 h; read-out: % Growth Inhibition (GI %)
Experimental: as §1

HOP-92 = assay: NCI one-dose SRB growth assay; assay type: cell-based; conditions: Homo sapiens; HOP-92 (Non-Small Cell Lung Cancer), 10^-5 M, 48 h; read-out: % Growth Inhibition (GI %)
Experimental: as §1

IGROV1 = assay: NCI one-dose SRB growth assay; assay type: cell-based; conditions: Homo sapiens, IGROV-1; IGROV1 (Ovarian Cancer), 10^-5 M, 48 h; read-out: % Growth Inhibition (GI %)
Experimental: as §1

MDA-MB-231/ATCC = assay: NCI one-dose SRB growth assay; assay type: cell-based; conditions: Homo sapiens; MDA-MB- 231/ATCC (Breast Cancer), 10^-5 M, 48 h; read-out: % Growth Inhibition (GI %)
Experimental: as §1

NCI-H322M = assay: NCI one-dose SRB growth assay; assay type: cell-based; conditions: Homo sapiens; NCI-H322M (Non-Small Cell Lung Cancer), 10^-5 M, 48 h; read-out: % Growth Inhibition (GI %)
Experimental: as §1

OVCAR-3 = assay: NCI one-dose SRB growth assay; assay type: cell-based; conditions: Homo sapiens; OVCAR-3 (Ovarian Cancer), 10^-5 M, 48 h; read-out: % Growth Inhibition (GI %)
Experimental: as §1

RXF 393 = assay: NCI one-dose SRB growth assay; assay type: cell-based; conditions: Homo sapiens; RXF 393 (Renal Cancer), 10^-5 M, 48 h; read-out: % Growth Inhibition (GI %)
Experimental: as §1

SF-295 = assay: NCI one-dose SRB growth assay; assay type: cell-based; conditions: Homo sapiens; SF-295 (CNS Cancer), 10^-5 M, 48 h; read-out: % Growth Inhibition (GI %)
Experimental: as §1

SK-MEL-2 = assay: NCI one-dose SRB growth assay; assay type: cell-based; conditions: Homo sapiens; SK-MEL-2 (Melanoma), 10^-5 M, 48 h; read-out: % Growth Inhibition (GI %)
Experimental: as §1

SNB-19 = assay: NCI one-dose SRB growth assay; assay type: cell-based; conditions: Homo sapiens; SNB-19 (CNS Cancer), 10^-5 M, 48 h; read-out: % Growth Inhibition (GI %)
Experimental: as §1

UACC-257 = assay: NCI one-dose SRB growth assay; assay type: cell-based; conditions: Homo sapiens; UACC-257 (Melanoma), 10^-5 M, 48 h; read-out: % Growth Inhibition (GI %)
Experimental: as §1

UO-31 = assay: NCI one-dose SRB growth assay; assay type: cell-based; conditions: Homo sapiens; UO-31 (Renal Cancer), 10^-5 M, 48 h; read-out: % Growth Inhibition (GI %)
Experimental: as §1

[1] = system: full panel of about 60 human tumor cell lines; assay: NCI five-dose SRB assay, full panel mean; conditions: 48 h; for GI50 / CC50: Homo sapiens; for GI50: read-out: GI50 MG-MID (Full panel mean-graph midpoint); for CC50: read-out: LC50 MG-MID (Full panel mean-graph midpoint); for TGI MG-MID (Full panel mean-graph midpoint): five concentrations
leukemia = assay: NCI five-dose SRB assay, subpanel average; conditions: 48 h; for GI50 / CC50: Homo sapiens; for GI50: read-out: GI50 (median growth inhibitory); for CC50: read-out: LC50 (median lethal); for TGI (total growth inhibitory): average over leukemia subpanel, five concentrations
NSC lung cancer = assay: NCI five-dose SRB assay, subpanel average; conditions: 48 h; for GI50 / CC50: Homo sapiens; for GI50: read-out: GI50 (median growth inhibitory); for CC50: read-out: LC50 (median lethal); for TGI (total growth inhibitory): average over NSC lung cancer subpanel, five concentrations
colon cancer = assay: NCI five-dose SRB assay, subpanel average; conditions: 48 h; for GI50 / CC50: Homo sapiens; for GI50: read-out: GI50 (median growth inhibitory); for CC50: read-out: LC50 (median lethal); for TGI (total growth inhibitory): average over colon cancer subpanel, five concentrations
CNS cancer = assay: NCI five-dose SRB assay, subpanel average; conditions: 48 h; for GI50 / CC50: Homo sapiens; for GI50: read-out: GI50 (median growth inhibitory); for CC50: read-out: LC50 (median lethal); for TGI (total growth inhibitory): average over CNS cancer subpanel, five concentrations
melanoma = assay: NCI five-dose SRB assay, subpanel average; conditions: 48 h; for GI50 / CC50: Homo sapiens; for GI50: read-out: GI50 (median growth inhibitory); for CC50: read-out: LC50 (median lethal); for TGI (total growth inhibitory): average over melanoma subpanel, five concentrations
ovarian cancer = assay: NCI five-dose SRB assay, subpanel average; conditions: 48 h; for GI50 / CC50: Homo sapiens; for GI50: read-out: GI50 (median growth inhibitory); for CC50: read-out: LC50 (median lethal); for TGI (total growth inhibitory): average over ovarian cancer subpanel, five concentrations
renal cancer = assay: NCI five-dose SRB assay, subpanel average; conditions: 48 h; for GI50 / CC50: Homo sapiens; for GI50: read-out: GI50 (median growth inhibitory); for CC50: read-out: LC50 (median lethal); for TGI (total growth inhibitory): average over renal cancer subpanel, five concentrations
prostate cancer = assay: NCI five-dose SRB assay, subpanel average; conditions: 48 h; for GI50 / CC50: Homo sapiens; for GI50: read-out: GI50 (median growth inhibitory); for CC50: read-out: LC50 (median lethal); for TGI (total growth inhibitory): average over prostate cancer subpanel, five concentrations
breast cancer = assay: NCI five-dose SRB assay, subpanel average; conditions: 48 h; for GI50 / CC50: Homo sapiens; for GI50: read-out: GI50 (median growth inhibitory); for CC50: read-out: LC50 (median lethal); for TGI (total growth inhibitory): average over breast cancer subpanel, five concentrations
[2] = system: 60 human tumor cell line panel; assay: NCI 60 cell line one-dose SRB primary anticancer assay; assay type: cell-based; conditions: 60 cell lines assay in one dose, 10µM (title; head prints 10.0 mM), 48 h
Experimental: as §1

M14 = assay: NCI one-dose SRB growth assay; assay type: cell-based; conditions: Homo sapiens; M14 (Melanoma), 10^-5 M, 48 h; read-out: % Growth Inhibition (GI %)
Experimental: as §1

O=c1[nH]cc(F)c(=O)[nH]1 [Compound 5-FU, 5-fluorouracil, reference compound]
inhibition at 10 µM (COLO 205): 40.2%
inhibition at 10 µM (HCC-2998): > 100%
inhibition at 10 µM (HOP-62): 47.8%
inhibition at 10 µM (HOP-92): 50.6%
inhibition at 10 µM (IGROV1): 51.2%
inhibition at 10 µM (MDA-MB-231/ATCC): 78.1%
inhibition at 10 µM (NCI-H322M): 59.5%
inhibition at 10 µM (OVCAR-3): 47.4%
inhibition at 10 µM (RXF 393): 34.3%
inhibition at 10 µM (SF-295): 69.1%
inhibition at 10 µM (SK-MEL-2): 95.5%
inhibition at 10 µM (SNB-19): 65.9%
inhibition at 10 µM (UACC-257): 19.5%
inhibition at 10 µM (UO-31): 41.3%
GI50 [1]: 22.6 µM
CC50 [1]: > 100 µM
TGI MG-MID (Full panel mean-graph midpoint) [1]: c (Compounds showed values > 100µM)
GI50 (leukemia): 15.1 µM
CC50 (leukemia): > 100 µM
TGI (total growth inhibitory) (leukemia): c (Compounds showed values > 100µM)
GI50 (NSC lung cancer): > 100 µM
CC50 (NSC lung cancer): > 100 µM
TGI (total growth inhibitory) (NSC lung cancer): c (Compounds showed values > 100µM)
GI50 (colon cancer): 8.4 µM
CC50 (colon cancer): > 100 µM
TGI (total growth inhibitory) (colon cancer): c (Compounds showed values > 100µM)
GI50 (CNS cancer): 72.1 µM
CC50 (CNS cancer): > 100 µM
TGI (total growth inhibitory) (CNS cancer): c (Compounds showed values > 100µM)
GI50 (melanoma): 70.6 µM
CC50 (melanoma): > 100 µM
TGI (total growth inhibitory) (melanoma): c (Compounds showed values > 100µM)
GI50 (ovarian cancer): 61.4 µM
CC50 (ovarian cancer): > 100 µM
TGI (total growth inhibitory) (ovarian cancer): c (Compounds showed values > 100µM)
GI50 (renal cancer): 45.6 µM
CC50 (renal cancer): > 100 µM
TGI (total growth inhibitory) (renal cancer): c (Compounds showed values > 100µM)
GI50 (prostate cancer): 22.7 µM
CC50 (prostate cancer): > 100 µM
TGI (total growth inhibitory) (prostate cancer): c (Compounds showed values > 100µM)
GI50 (breast cancer): 76.4 µM
CC50 (breast cancer): > 100 µM
TGI (total growth inhibitory) (breast cancer): c (Compounds showed values > 100µM)

CCn1cc(C(=O)O)c(=O)c2cc(F)c(N3CCN(S(=O)(=O)c4ccc(Cl)cc4)CC3)cc21 [Compound 1a]
PCE (Positive cytotoxic effect: ratio between number of cell lines with percentage growth inhibition from 10 to >100 and total number of cell lines) [2]: 56/56
RGI % (Range of growth inhibition percentage) [2]: >100.0 to 31.3%
inhibition at 10 µM ([2]; Homo sapiens, read-out: MGI % (Mean growth inhibition percentage)): 75.6%
inhibition at 10 µM (COLO 205): 87.9%
inhibition at 10 µM (HCC-2998): 75.5%
inhibition at 10 µM (HOP-92): > 100%
inhibition at 10 µM (IGROV1): 90.6%
inhibition at 10 µM (M14): 81.1%
inhibition at 10 µM (MDA-MB-231/ATCC): 58.9%
inhibition at 10 µM (NCI-H322M): 54.1%
inhibition at 10 µM (OVCAR-3): 71.8%
inhibition at 10 µM (RXF 393): 86.6%
inhibition at 10 µM (SF-295): 96.1%
inhibition at 10 µM (SK-MEL-2): 56.2%
inhibition at 10 µM (SNB-19): 79.4%
inhibition at 10 µM (UACC-257): 71%
inhibition at 10 µM (UO-31): 48.9%
CC50 ([1]; 60 cell): 95.5 µM
GI50 [1]: 2.95 µM
TGI MG-MID (Full panel mean-graph midpoint) [1]: 29.51 µM
GI50 (leukemia): 2.89 µM
CC50 (leukemia): > 100 µM
TGI (total growth inhibitory) (leukemia): 80.96 µM
GI50 (NSC lung cancer): 2.87 µM
CC50 (NSC lung cancer): > 100 µM
TGI (total growth inhibitory) (NSC lung cancer): 53.38 µM
GI50 (colon cancer): 3.38 µM
CC50 (colon cancer): 95.2 µM
TGI (total growth inhibitory) (colon cancer): 73.15 µM
GI50 (CNS cancer): 3.57 µM
CC50 (CNS cancer): > 100 µM
TGI (total growth inhibitory) (CNS cancer): 70.26 µM
GI50 (melanoma): 2.56 µM
CC50 (melanoma): 89.7 µM
TGI (total growth inhibitory) (melanoma): 29.36 µM
GI50 (ovarian cancer): 3.16 µM
CC50 (ovarian cancer): > 100 µM
TGI (total growth inhibitory) (ovarian cancer): 54.29 µM
GI50 (renal cancer): 2.93 µM
CC50 (renal cancer): > 100 µM
TGI (total growth inhibitory) (renal cancer): 54.00 µM
GI50 (prostate cancer): 3.21 µM
CC50 (prostate cancer): > 100 µM
TGI (total growth inhibitory) (prostate cancer): 54.11 µM
GI50 (breast cancer): 2.95 µM
CC50 (breast cancer): > 100 µM
TGI (total growth inhibitory) (breast cancer): 54.63 µM
